Test results published in PubChem BioAssay (NCI).
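Interpolation was linear, between the two tested concentrations surrounding the appropriate level; five concentrations were tested over 48 hours in 96-well plates. Abbreviation: GI50, concentration required for 50% inhibition of growth. The concentration for full growth arrest is given as TGI.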

What was measured:
Test in all cases: inhibition of tumour cell growth, NCI panel, 48 h
786-0 renal = system: 786-0 renal
A498 renal = system: A498 renal
A549 NSCLC = system: A549 NSCLC
ACHN renal = system: ACHN renal
BT-549 breast = system: BT-549 breast
CAKI-1 renal = system: CAKI-1 renal
CCRF-CEM leukemia = system: CCRF-CEM leukemia
COLO 205 colon = system: COLO 205 colon
DU-145 prostate = system: DU-145 prostate
EKVX NSCLC = system: EKVX NSCLC
HCC-2998 colon = system: HCC-2998 colon
HCT-116 colon = system: HCT-116 colon
HCT-15 colon = system: HCT-15 colon
HL-60(TB) leukemia = system: HL-60(TB) leukemia
HOP-62 NSCLC = system: HOP-62 NSCLC
HOP-92 NSCLC = system: HOP-92 NSCLC
HS 578T breast = system: HS 578T breast
HT29 colon = system: HT29 colon
IGROV1 ovarian = system: IGROV1 ovarian
K-562 leukemia = system: K-562 leukemia
KM12 colon = system: KM12 colon
LOX IMVI melanoma = system: LOX IMVI melanoma
M14 melanoma = system: M14 melanoma
MALME-3M melanoma = system: MALME-3M melanoma
MCF7 breast = system: MCF7 breast
MDA-MB-231 breast = system: MDA-MB-231 breast
MDA-MB-435 = system: MDA-MB-435
MOLT-4 leukemia = system: MOLT-4 leukemia
NCI-H226 lung = system: NCI-H226 lung
NCI-H23 lung = system: NCI-H23 lung
NCI-H460 lung = system: NCI-H460 lung
NCI-H522 lung = system: NCI-H522 lung
NCI/ADR-RES ovarian = system: NCI/ADR-RES ovarian
OVCAR-3 ovarian = system: OVCAR-3 ovarian
OVCAR-4 ovarian = system: OVCAR-4 ovarian
OVCAR-5 ovarian = system: OVCAR-5 ovarian
OVCAR-8 ovarian = system: OVCAR-8 ovarian
PC-3 prostate = system: PC-3 prostate
RPMI-8226 leukemia = system: RPMI-8226 leukemia
RXF 393 renal = system: RXF 393 renal
SF-268 CNS = system: SF-268 CNS
SF-295 CNS = system: SF-295 CNS
SF-539 CNS = system: SF-539 CNS
SK-MEL-2 melanoma = system: SK-MEL-2 melanoma
SK-MEL-28 melanoma = system: SK-MEL-28 melanoma
SK-MEL-5 melanoma = system: SK-MEL-5 melanoma
SK-OV-3 ovarian = system: SK-OV-3 ovarian
SN12C renal = system: SN12C renal
SNB-19 CNS = system: SNB-19 CNS
SW-620 colon = system: SW-620 colon
T-47D breast = system: T-47D breast
TK-10 renal = system: TK-10 renal
U251 CNS = system: U251 CNS
UACC-257 melanoma = system: UACC-257 melanoma
UACC-62 melanoma = system: UACC-62 melanoma
UO-31 renal = system: UO-31 renal

COc1cc(/C=C/c2cc(/C=C/c3ccc(O)c(OC)c3)n(-c3c(Cl)cccc3Cl)c(=O)n2)ccc1O
GI50 (786-0 renal): 2.74 µM
TGI (786-0 renal): 8.51 µM
GI50 (A498 renal): 3.79 µM
TGI (A498 renal): 13.2 µM
GI50 (A549 NSCLC): 4.03 µM
TGI (A549 NSCLC): 15 µM
GI50 (ACHN renal): 2.84 µM
TGI (ACHN renal): 12.7 µM
GI50 (BT-549 breast): 2.07 µM
TGI (BT-549 breast): 6.67 µM
GI50 (CAKI-1 renal): 14.6 µM
TGI (CAKI-1 renal): 30 µM
GI50 (CCRF-CEM leukemia): 3.21 µM
TGI (CCRF-CEM leukemia): 70.6 µM
GI50 (COLO 205 colon): 2.84 µM
TGI (COLO 205 colon): 8.95 µM
GI50 (DU-145 prostate): 3.48 µM
TGI (DU-145 prostate): 13 µM
GI50 (EKVX NSCLC): 3.26 µM
TGI (EKVX NSCLC): 14.8 µM
GI50 (HCC-2998 colon): 1.83 µM
TGI (HCC-2998 colon): 3.53 µM
GI50 (HCT-116 colon): 1.31 µM
TGI (HCT-116 colon): 5.25 µM
GI50 (HCT-15 colon): 2.44 µM
TGI (HCT-15 colon): 9.66 µM
GI50 (HL-60(TB) leukemia): 2.64 µM
TGI (HL-60(TB) leukemia): 14.4 µM
GI50 (HOP-62 NSCLC): 3.41 µM
TGI (HOP-62 NSCLC): 12.8 µM
GI50 (HOP-92 NSCLC): 4.22 µM
TGI (HOP-92 NSCLC): 16.4 µM
GI50 (HS 578T breast): 5.48 µM
TGI (HS 578T breast): > 100 µM
GI50 (HT29 colon): 1.77 µM
TGI (HT29 colon): 3.36 µM
GI50 (IGROV1 ovarian): 3.01 µM
TGI (IGROV1 ovarian): 12.3 µM
GI50 (K-562 leukemia): 3.11 µM
TGI (K-562 leukemia): > 100 µM
GI50 (KM12 colon): 2.02 µM
TGI (KM12 colon): 5.27 µM
GI50 (LOX IMVI melanoma): 1.68 µM
TGI (LOX IMVI melanoma): 3.57 µM
GI50 (M14 melanoma): 2.38 µM
TGI (M14 melanoma): 6.87 µM
GI50 (MALME-3M melanoma): 3.88 µM
TGI (MALME-3M melanoma): 15.7 µM
GI50 (MCF7 breast): 2 µM
TGI (MCF7 breast): 11 µM
GI50 (MDA-MB-231 breast): 3.65 µM
TGI (MDA-MB-231 breast): 15.1 µM
GI50 (MDA-MB-435): 1.63 µM
TGI (MDA-MB-435): 5.98 µM
GI50 (MOLT-4 leukemia): 3.38 µM
TGI (MOLT-4 leukemia): 22.6 µM
GI50 (NCI-H226 lung): 3.27 µM
TGI (NCI-H226 lung): 9.44 µM
GI50 (NCI-H23 lung): 2.38 µM
TGI (NCI-H23 lung): 6.68 µM
GI50 (NCI-H460 lung): 3.39 µM
TGI (NCI-H460 lung): 11.8 µM
GI50 (NCI-H522 lung): 1.55 µM
TGI (NCI-H522 lung): 3.23 µM
GI50 (NCI/ADR-RES ovarian): 3.53 µM
TGI (NCI/ADR-RES ovarian): 22 µM
GI50 (OVCAR-3 ovarian): 3.19 µM
TGI (OVCAR-3 ovarian): 12.1 µM
GI50 (OVCAR-4 ovarian): 4.61 µM
TGI (OVCAR-4 ovarian): 16.9 µM
GI50 (OVCAR-5 ovarian): 2.76 µM
TGI (OVCAR-5 ovarian): 11 µM
GI50 (OVCAR-8 ovarian): 3.34 µM
TGI (OVCAR-8 ovarian): 10.5 µM
GI50 (PC-3 prostate): 4.68 µM
TGI (PC-3 prostate): 25.3 µM
GI50 (RPMI-8226 leukemia): 2.96 µM
TGI (RPMI-8226 leukemia): 22.7 µM
GI50 (RXF 393 renal): 2.18 µM
TGI (RXF 393 renal): 4.92 µM
GI50 (SF-268 CNS): 3.12 µM
TGI (SF-268 CNS): 13.7 µM
GI50 (SF-295 CNS): 2.87 µM
TGI (SF-295 CNS): 9.52 µM
GI50 (SF-539 CNS): 2.18 µM
TGI (SF-539 CNS): 6.92 µM
GI50 (SK-MEL-2 melanoma): 3.3 µM
TGI (SK-MEL-2 melanoma): 12.9 µM
GI50 (SK-MEL-28 melanoma): 2.74 µM
TGI (SK-MEL-28 melanoma): 10.1 µM
GI50 (SK-MEL-5 melanoma): 2.18 µM
TGI (SK-MEL-5 melanoma): 4.86 µM
GI50 (SK-OV-3 ovarian): 2.78 µM
TGI (SK-OV-3 ovarian): 10.6 µM
GI50 (SN12C renal): 4.82 µM
TGI (SN12C renal): 19.5 µM
GI50 (SNB-19 CNS): 3.54 µM
TGI (SNB-19 CNS): 13.2 µM
GI50 (SW-620 colon): 3.11 µM
TGI (SW-620 colon): 10.5 µM
GI50 (T-47D breast): 3.44 µM
TGI (T-47D breast): 22.7 µM
GI50 (TK-10 renal): 2.91 µM
TGI (TK-10 renal): 10.1 µM
GI50 (U251 CNS): 2.37 µM
TGI (U251 CNS): 6.36 µM
GI50 (UACC-257 melanoma): 3.32 µM
TGI (UACC-257 melanoma): 11.3 µM
GI50 (UACC-62 melanoma): 2.59 µM
TGI (UACC-62 melanoma): 7.42 µM
GI50 (UO-31 renal): 2.74 µM
TGI (UO-31 renal): 12.3 µM
